Source: patent publication US20020025974A1, “BICYCLE THIOPHENES AND THIAZOLES” (priority 1998, published 2002)
pKi: −log10 of the molar value. Structures can show the parent of a compound that is named as a salt. Where two headings read alike, the source gives them in different places.

Columns and labels:
[1] = target: T1, Alpha-2D adrenergic receptor (Rattus norvegicus, UniProt P22909); assay: Alpha-2D adrenergic receptor binding assay (3H-para-aminoclonidine, rat cortex synaptic membranes); conditions: ligand 3H-para-aminoclonidine, 25° C. 20 min
T1 construct: aliquots of the synaptic membrane fraction, the ligand ^3H-para-aminoclonidine and test drug; from tissue; host or cells: rat brain cortex synaptic membrane fraction (male Wistar rats)
T1 sequence (P22909 1-465): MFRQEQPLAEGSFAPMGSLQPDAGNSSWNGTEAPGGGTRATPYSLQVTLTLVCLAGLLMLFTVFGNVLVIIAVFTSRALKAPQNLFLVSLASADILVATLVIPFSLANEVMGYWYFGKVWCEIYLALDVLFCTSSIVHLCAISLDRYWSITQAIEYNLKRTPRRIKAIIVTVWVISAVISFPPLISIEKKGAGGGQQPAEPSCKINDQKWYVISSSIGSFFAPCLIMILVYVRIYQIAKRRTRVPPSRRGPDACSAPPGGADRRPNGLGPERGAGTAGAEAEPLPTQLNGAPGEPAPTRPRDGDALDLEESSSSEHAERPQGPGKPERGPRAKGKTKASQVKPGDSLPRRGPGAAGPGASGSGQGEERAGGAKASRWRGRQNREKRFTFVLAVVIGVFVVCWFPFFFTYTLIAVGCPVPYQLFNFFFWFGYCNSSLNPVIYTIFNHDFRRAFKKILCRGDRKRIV
Method: Alpha-2D adrenergic receptor binding assay
Male, Wistar rats (150-250 g, VAF, Charles River, Kingston, N.Y.) are sacrificed by cervical dislocation and their brains removed and placed immediately in ice cold HEPES buffered sucrose. The cortex is dissected out and homogenized in 20 volumes of HEPES sucrose in a Teflon™-glass homogenizer. The homogenate is centrifuged at 1000 g for 10 min, and the resulting supernatant centrifuged at 42,000 g for 10 min. The resulting pellet is resuspended in 30 volumes of 3 mM potassium phosphate buffer, pH 7.5, preincubated at 25° C. for 30 min and recentrifuged. The resulting pellet is resuspended as described above and used for the receptor binding assay. […] The incubation is terminated by filtration of the tube contents through glass fiber filter sheets. Following washing of the sheets with 10 mM HEPES buffer, the adhering radioactivity is quantified by liquid scintillation spectrometry.
Binding of the test drug to the receptor is determined by comparing the amount of radiolabeled ligand bound in control tubes without drug to the amount of radiolabeled ligand bound in the presence of the drug. Dose-response data are analyzed with LIGAND, a nonlinear curve fitting program designed specifically for the analysis of ligand binding data.

Compound	pKi ([1]; α2D Ki)	further results
c1nc(Cc2nc3c(s2)CCCC3)c[nH]1 (as salt: fumaric acid salt) [Cp-11]		melting point: 169 to 171 °C
c1ccc2sc(Cc3c[nH]cn3)cc2c1 [Cp-1]	8.96	
OC(c1c[nH]cn1)c1cc2ccccc2s1 (centres unmarked) [Cp-2]	7.13	
CC(c1c[nH]cn1)c1cc2ccccc2s1 (centres unmarked) [Cp-3]	7.85	
Brc1c(Cc2c[nH]cn2)sc2ccccc12 [Cp-4]	9.66	
c1ccc2c(Cc3c[nH]cn3)csc2c1 [Cp-6]	10.05	
c1ccc2sc(-c3c[nH]cn3)cc2c1 [Cp-9]		pKi ([1]; read-out: α2D Ki): 7.74
c1nc(Cc2nc3c(s2)CCCC3)c[nH]1 [Cp-11]		pKi ([1]; read-out: α2D Ki): 6.96
